{
  "source": "patent US11976083B2",
  "about": "“Inhibitors of peptidylarginine deiminases” (Gilead Sciences, Inc., priority 2020, dated 2024)",
  "data": [
    {"molecular_target": "T1, human PAD4 (Homo sapiens, UniProt Q9UM07)", "T1 construct": "human PAD4 (NM_012387), A2-P663, was PCR amplified; His-SUMO (N, cleaved yes); made in house; host or cells: E. coli BL21(DE3)", "T1 sequence (Q9UM07 2-663)": "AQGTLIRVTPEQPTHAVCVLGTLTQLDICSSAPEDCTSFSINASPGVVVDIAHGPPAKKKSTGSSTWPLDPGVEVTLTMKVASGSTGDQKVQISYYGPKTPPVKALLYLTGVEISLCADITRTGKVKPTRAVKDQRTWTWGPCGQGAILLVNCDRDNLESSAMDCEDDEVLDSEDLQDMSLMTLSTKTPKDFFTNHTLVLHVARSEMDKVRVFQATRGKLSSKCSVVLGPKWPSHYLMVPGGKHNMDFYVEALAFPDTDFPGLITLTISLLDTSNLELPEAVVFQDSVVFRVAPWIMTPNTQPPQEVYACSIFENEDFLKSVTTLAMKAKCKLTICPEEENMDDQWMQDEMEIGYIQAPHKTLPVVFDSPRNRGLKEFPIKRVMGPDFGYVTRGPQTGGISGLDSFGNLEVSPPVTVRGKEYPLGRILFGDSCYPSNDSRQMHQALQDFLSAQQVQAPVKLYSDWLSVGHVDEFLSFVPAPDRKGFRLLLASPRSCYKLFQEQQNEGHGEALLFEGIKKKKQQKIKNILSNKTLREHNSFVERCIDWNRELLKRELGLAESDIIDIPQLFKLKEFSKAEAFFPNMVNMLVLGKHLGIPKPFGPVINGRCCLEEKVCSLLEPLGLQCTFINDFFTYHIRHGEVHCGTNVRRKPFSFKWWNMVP", "experiment": "In vitro PAD4 BAEE biochemical assay", "conditions": "BAEE substrate 3 mM, 5 nM PAD4, 2 mM calcium chloride; geometric mean of multiple experiments", "outline": "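Recombinant human PAD4 (5 nM final) with 2 mM CaCl2 was preincubated with compound 30 min at 25 °C in MOPS buffer pH 7.6, then reacted with 3 mM BAEE for 2 h at 25 °C. After EDTA stop, released ammonia was detected by o-phthalaldehyde/DTT fluorescence (ex 405/em 535 nm); IC50 from four-parameter fit, geometric mean.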", "units": {"IC50": "nM"}, "values": [
      {"smiles": "COCCn1c(-c2cc3ccc4nc3n2CCCCCCC(C)(C)C(=O)N[C@@H]4C)nc2cc(C(=O)N[C@H]3CNCC[C@@H]3F)c(F)c(F)c21", "note": "[Example 558, 6,7-difluoro-~{N}-[(3~{S},4~{S})-4-fluoro-3-piperidyl]-1-(2-methoxyethyl)-2-[(11~{R})-8,8,11-trimethyl-9-oxo-1,10,19-triazatricyclo [10.5.2.0^{15,18}]nonadeca-12(19),13,15(18),16-tetraen-17-yl]benzimidazole-5-carboxamide]", "IC50": 80},
      {"smiles": "COCCn1c(-c2cc3ccc4nc3n2CCCCC[C@@H]2C[C@H]2C(=O)N[C@@H]4C)nc2cc(C(=O)N[C@H]3CNCC[C@@H]3F)c(F)c(F)c21", "note": "[Example 559, 6,7-difluoro-~{N}-[(3~{S},4~{S})-4-fluoro-3-piperidyl]-1-(2-methoxyethyl)-2-[(2~{R},5~{R},7~ {R})-2-methyl-4-oxo-3,13,19-triazatetracyclo [11.5.2.0^{5,7}.0^{16,20}]icosa-1(19),14,16(20), 17-tetraen-14-yl] benzimidazole-5-carboxamide]", "IC50": 47},
      {"smiles": "C[C@H]1NC(=O)[C@@H]2C[C@H]2CCCC(F)(F)Cn2c(-c3nc4cc(C(=O)N[C@H]5CNCC[C@@H]5F)c(F)c(F)c4n3C)cc3ccc1nc32", "note": "[Example 560, 2-[(2~{R},5~{R},7~ {R})-11,11-difluoro-2-methyl-4-oxo-3,13,19-triazatetracyclo[11.5.2.0^ {5,7}.0^{16,20}]icosa-1(19), 14,16(20),17-tetraen-14-yl]-6,7-difluoro-~{N}-[(3~{S},4~{S})-4-fluoro-3-piperidyl]-1-methyl-benzimidazole-5-carboxamide]", "IC50": 52},
      {"smiles": "C[C@H]1NC(=O)[C@@H]2C[C@H]2C/C=C/CCn2c(-c3nc4cc(C(=O)N[C@H]5CNCC[C@@H]5F)cc(C(F)(F)F)c4n3C)cc3ccc1nc32", "note": "[Example 561, ~{N}-[(3~{S},4~{S})-4-fluoro-3-piperidyl]-1-methyl-2-[(2~{R},5~{R}, 7~{R},9~{E})-2-methyl-4-oxo-3,13,19-triazatetracyclo [11.5.2.0^{5,7}.0^{16,20}]icosa-1(19),9,14,16(20), 17-pentaen-14-yl]-7-(trifluoromethyl) benzimidazole-5-carboxamide]", "IC50": 523},
      {"smiles": "C[C@H]1NC(=O)[C@@H]2C[C@H]2CCCCCn2c(-c3nc4cc(C(=O)N[C@H]5CNCC[C@@H]5F)cc(C(F)(F)F)c4n3C)cc3ccc1nc32", "note": "[Example 562, ~{N}-[(3~{S},4~{S})-4-fluoro-3-piperidyl]-1-methyl-2-[(2~{R},5~{R},7~ {R})-2-methyl-4-oxo-3,13,19-triazatetracyclo [11.5.2.0^{5,7}.0^{16,20}]icosa-1(19),14,16(20), 17-tetraen-14-yl]-7-(trifluoromethyl) benzimidazole-5-carboxamide]", "IC50": 466},
      {"smiles": "C[C@H]1NC(=O)[C@@H]2C[C@H]2CCCCCn2c(-c3nc4cc(C(=O)N5[C@H]6CC[C@@H]5[C@H](N)C6)cnc4n3C)cc3ccc1nc32", "note": "[Example 563, (2~{R},5~{R},7~{R})-14-[6-[(1~{R},2~{R},4~ {S})-2-amino-7-azabicyclo [2.2.1]heptane-7-carbonyl]-3-methyl-imidazo[4,5-b]pyridin-2-yl]-2-methyl-3,13,19-triazatetracyclo [11.5.2.0^{5,7}.0^{16,20}] icosa-1(19),14,16(20), 17-tetraen-4-one]", "IC50": 26},
      {"smiles": "C[C@H]1NC(=O)[C@@H]2C[C@H]2CCCCCn2c(-c3nc4cc(C(=O)N[C@H]5CNCC[C@@H]5F)c(F)cc4n3C)cc3ccc1cc32", "note": "[Example 564, 6-fluoro-~{N}-[(3~{S},4~ {S})-4-fluoro-3-piperidyl]-1-methyl-2-[(2~{R},5~ {R},7~{R})-2-methyl-4-oxo-3,13-diazatetracyclo [11.5.2.0^{5,7}.0^{16,20}]icosa-1(19),14,16(20), 17-tetraen-14-yl] benzimidazole-5-carboxamide]", "IC50": 24},
      {"smiles": "C[C@H]1NC(=O)C(C)(C)CCCCCCn2c(-c3nc4cc(C(=O)N[C@H]5CNCC[C@@H]5F)c(F)cc4n3C)cc3ccc1cc32", "note": "[Example 565, 6-fluoro-~{N}-[(3~{S}, 4~{S})-4-fluoro-3-piperidyl]-1-methyl-2-[(11~{R})-8,8,11-trimethyl-9-oxo-1,10-diazatricyclo[10.5.2.0^ {15,18}]nonadeca-12(19),13,15(18),16-tetraen-17-yl] benzimidazole-5-carboxamide]", "IC50": 41},
      {"smiles": "C[C@H]1NC(=O)[C@@H]2CC2CCCC(F)(F)Cn2c(-c3nc4cc(C(=O)N5C[C@H]6CC[C@@H]5[C@@H]6N)c(F)c(F)c4n3C)cc3ccc1nc32", "note": "(stereo partly drawn) [Example 566, (2~{R},5~{R},7~{R})-14-[5-[(1~{R},4~{R},7~{R})-7-amino-2-azabicyclo [2.2.1]heptane-2-carbonyl]-6,7-difluoro-1-methyl-benzimidazol-2-yl]-11,11-difluoro-2-methyl-3,13,19-triazatetracyclo[11.5.2.0^ {5,7).0^{16,20}]icosa-1(19),14,16(20),17-tetraen-4-one]", "IC50": 97},
      {"smiles": "C[C@H]1NC(=O)[C@@H]2C[C@H]2CCCCCn2c(-c3nc4cc(C(=O)N[C@@H]5CCCNC5)c(F)cc4n3C3CC3)cc3ccc1nc32", "note": "[Example 568, 1-cyclopropyl-6-fluoro-2-[(2~{R},5~{R},7~{R})-2-methyl-4-oxo-3,13,19-triazatetracyclo[11.5.2.0^ {5,7}.0^{16,20}]icosa-1(19), 14,16(20),17-tetraen-14-yl]- ~{N}-[(3~{R})-3-piperidyl]benzimidazole-5-carboxamide11,11-difluoro-2-methyl-4-oxo-3,13,19-]", "IC50": 33},
      {"smiles": "C[C@H]1NC(=O)[C@@H]2C[C@H]2CCCCCn2c(-c3nc4cc(C(=O)N5CC6(CCCNC6)C5)c(F)cc4n3C3CC3)cc3ccc1nc32", "note": "[Example 569, (2~{R},5~{R},7~{R})-14-[1-cyclopropyl-5-(2,8-diazaspiro[3.5]nonane-2-carbonyl)-6-fluoro-benzimidazol-2-yl]-2-methyl-3,13,19-triazatetracyclo [11.5.2.0^{5,7}.0^ {16,20}]icosa-1(19),14, 16(20),17-tetraen-4-one]", "IC50": 109},
      {"smiles": "COc1cc(C(=O)N2CC[C@@H](OC)[C@@H](N)C2)cc2nc(-c3cc4ccc5nc4n3CCCCCc3nn(C)nc3C(=O)N[C@@H]5C)n(C)c12", "note": "[Example 570, (2~{R})-16-[5-[(3~{S}, 4~{R})-3-amino-4-methoxy-piperidine-1-carbonyl]-7-methoxy-1-methyl-benzimidazol-2-yl]-2,7-dimethyl-3,6,7,8,15,21-hexazatetracyclo[13.5.2.0^ {5,9}.0^{18,22}] docosa-1(21),5,8,16,18(22), 19-hexaen-4-one]", "IC50": 94},
      {"smiles": "C[C@H]1NC(=O)[C@@H]2C[C@H]2CCCCCn2c(-c3nc4cc(C(=O)N[C@H]5CNCC[C@@H]5F)c(F)cc4n3C3CC34CC4)cc3ccc1nc32", "note": "(stereo partly drawn) [Example 571, 6-fluoro-~{N}-[(3~ {S},4~{S})-4-fluoro-3-piperidyl]-2-[(2~{R}, 5~{R},7~{R})-2-methyl-4-oxo-3,13,19-triazatetracyclo[11.5.2.0^ {5,7}.0^{16,20}]icosa-1(19),14,16(20),17-tetraen-14-yl]-1-spiro [2.2]pentan-2-yl-benzimidazole-5-carboxamide]", "IC50": 31},
      {"smiles": "CO[C@@H]1CCN(C(=O)c2cc3nc(-c4cc5ccc6nc5n4CCCCC[C@@H]4C[C@H]4C(=O)N[C@@H]6C)n(C4CC4)c3cc2F)C[C@@H]1N", "note": "[Example 572, (2~{R},5~{R},7~{R})-14-[5-[(3~{S},4~{R})-3-amino-4-methoxy-piperidine-1-carbonyl]-1-cyclopropyl-6-fluoro-benzimidazol-2-yl]-2-methyl-3,13,19-triazatetracyclo [11.5.2.0^{5,7}.0^{16,20}] icosa-1(19),14,16(20), 17-tetraen-4-one]", "IC50": 53},
      {"smiles": "C[C@H]1NC(=O)[C@@H]2C[C@H]2CCCCCn2c(-c3nc4cc(C(=O)N[C@H]5CNCC[C@@H]5F)cnc4n3C3CC3)cc3ccc1nc32", "note": "[Example 573, 3-cyclopropyl-~{N}-[(3~ {S},4~{S})-4-fluoro-3-piperidyl]-2-[(2~{R},5~ {R},7~{R})-2-methyl-4-oxo-3,13,19-triazatetracyclo [11.5.2.0^{5,7}.0^{16,20}]icosa-1(19),14,16(20), 17-tetraen-14-yl]imidazo [4,5-b]pyridine-6-carboxamide]", "IC50": 23},
      {"smiles": "CO[C@@H]1CCN(C(=O)c2cnc3c(c2)nc(-c2cc4ccc5nc4n2CCCCC[C@@H]2C[C@H]2C(=O)N[C@@H]5C)n3C2CC2)C[C@@H]1N", "note": "[Example 574, (2~{R},5~{R},7~{R})-14-[6-[(3~{S},4~{R})-3-amino-4-methoxy-piperidine-1-carbonyl]-3-cyclopropyl-imidazo [4,5-b]pyridin-2-yl]-2-methyl-3,13,19-triazatetracyclo [11.5.2.0^{5,7}.0^{16,20}] icosa-1(19),14,16(20),17-tetraen-4-one]", "IC50": 117},
      {"smiles": "C[C@H]1NC(=O)[C@@H]2C[C@H]2CCCCCn2c(-c3nc4cc(C(=O)N[C@H]5CNC[C@H]6C[C@H]65)c(F)cc4n3C3CC3)cc3ccc1nc32", "note": "[Example 575, ~{N}-[(1~{S),5~{R},6~{R})-3-azabicyclo[4.1.0]heptan-5-yl]-1-cyclopropyl-6-fluoro-2-[(2~{R},5~{R},7~{R})-2-methyl-4-oxo-3,13,19-triazatetracyclo[11.5.2.0^ {5,7}.0^{16,20}]icosa-1(19),14,16(20),17-tetraen-14-yl]benzimidazole-5-carboxamide]", "IC50": 26},
      {"smiles": "COc1cc(C(=O)N2CC[C@@H](OC)[C@@H](N)C2)cc2nc(-c3cc4ccc5cc4n3CCCCCc3nccnc3C(=O)N[C@@H]5C)n(C)c12", "note": "[Example 576, (2~{R})-17-[5-[(3~{S},4~ {R})-3-amino-4-methoxy-piperidine-1-carbonyl]-7-methoxy-1-methyl-benzimidazol-2-yl]-2-methyl-3,6,9,16-tetrazatetracyclo[14.5.2.0^ {5,10}.0^{19,23}] tricosa-1(22),5(10),6,8,17, 19(23),20-heptaen-4-one]", "IC50": 68}
    ]}
  ]
}
